Measurements reported in patent US11931451B2, “Skin lightening compounds from fruit seed extracts” (WiSys Technology Foundation, Inc., priority 2016, dated 2024).

Legend:
[1] = Solubility of extracts and reference compounds in solvents / assay medium; type: physicochemical
Description: A 2.5 gram sample of a red raspberry seed extract in a dry powder form was split into two fractions, one combined 1.25 grams of the dry extract with 11.25 grams of water to create a 10% aqueous solution of the extract. […] Combining 1.25 grams of the dry extract with about 11.25 grams of Isopropyl alcohol (91%) produced an about 10% alcohol solution.
Using pure water was explored in extraction experiments with cranberry seed powder. The advantages of using water were essentially zero cost and toxicity. […] The limitations of using water were that it gave quite low yields in extractions at room temperature and only dissolved the most polar compounds from the seed powders, leaving most of the medium polarity materials behind. It is possible that this could be improved by heating. […] Simply filtering the mixture through inexpensive filter paper by gravity or mild vacuum was unsuccessful. One solution that worked was mixing in filtering media (diatomaceous earth) and then vacuum filtering through a bed of the same filtering medium. To completely clarify the mixture, an additional treatment with activated carbon and further vacuum filtering through a bed of diatomaceous earth was effective. Given the limitations of water extraction, it was not used extensively. One exception was the use of sodium hydroxide solutions in water to extract pomegranate seed powder, which contained significant amounts of the targeted compound ellagic acid. […] Therefore, 1 M aqueous sodium hydroxide solution was used to extract this material from pomegranate seed powder. After filtering away the solid seed material the solution was acidified to pH=4 by addition of 1 N HCl. A small amount of solid developed, which was filtered with some difficulties.
The extracts in Tables 2 and 3, prepared from 70:30 methanol/water, were tested for their ability to inhibit tyrosinase at concentrations of 1.0 mg/mL, 0.1 mg/mL, 0.01 mg/mL, and in some cases 0.001 mg/mL. For comparison several other known tyrosinase inhibitors including kojic acid, alpha-arbutin, beta-arbutin, hydroquinone, and quercetin were tested. Kojic acid is often used in tyrosinase inhibition studies as a benchmark inhibitor for comparison with other inhibitors. I included beta-arbutin and hydroquinone due to their relevance in skin whitening applications. Additionally, several commercial skin whitening agents were also tested. These included a product called Radian Skin from BASF, and an arbutin material sold by the company Presperse. […] Even highly dilute samples of ellagic acid were not sufficiently soluble. […] Finally, a mixture of red raspberry and tomato extracts (FIG. 10) was tested to look for possible synergistic effects in mixtures on two quite different materials. […]

[2] = tested on: tyrosinase enzyme (from mushroom); test: Tyrosinase inhibition assay (L-DOPA to dopachrome, absorbance at 475 nm); type: biochemical; details: 0.001-1 mg/mL, FIGS. 11-12
Protocol: Extracts were tested for their ability to inhibit the enzyme tyrosinase. This enzyme catalyzes the air oxidation of L-DOPA (colorless) to the compound dopachrome, which is a highly colored intermediate in the production of melanin. The dopachrome molecule absorbs strongly at 475 nm. So, measuring the rate of change of absorption at this wavelength using UV/visible spectroscopy can easily assess the enzyme's activity. The tyrosinase enzyme (from mushroom) was purchased from Sigma-Aldrich as a lyophilized powder with an activity of 5771 units per mg of solid (a unit of activity is defined as the rate at which the enzyme catalyzes the reaction of a standard substrate at a standard concentration). […] Next, the enzyme solution was added (500 μL), the cuvette was covered with a piece of Parafilm and inverted twice to thoroughly mix the solutions, and immediately after the cuvette was placed in a UV/visible spectrometer and absorbance was measured at 475 nm every second for 60 seconds. The slope of the line formed by graphing change in absorbance versus time gave the rate in units of AA/second. […] Percentage inhibition values were calculated by taking the rate of the blank run with no inhibitor minus the rate of the inhibited sample and then dividing that value by the blank rate and multiplying by 100. […]

Row | solubility (medium not stated) [1] | solubility in water ([1]; high pH) | solubility in water ([1]; neutral pH) | solubility in the enzyme assay ([1]; tyrosinase assay medium) | tyrosinase inhibition strength (in words, from dose-response curves) [2] | SMILES
1 | highly insoluble | very water soluble | only slightly soluble | highly insoluble |  | O=c1oc2c(O)c(O)cc3c(=O)oc4c(O)c(O)cc1c4c23 [ellagic acid]
2 |  |  |  |  | strongest inhibitor | O=c1cc(CO)occ1O [kojic acid]
3 |  |  |  |  | considerably more potent than the others | O=c1c(O)c(-c2ccc(O)c(O)c2)oc2cc(O)cc(O)c12 [quercetin]
